Measured values as given in patent publication US20230416225A1, “DIAMINOPYRIMIDINE CARBOXAMIDE INHIBITORS OF HPK1” (MERCK SHARP & DOHME LLC, priority 2020, published 2023).

Target: T1, Human HPK1, catalytic domain (Homo sapiens, UniProt Q92918)
T1 construct: purchased Carna
T1 sequence (Q92918 1-346): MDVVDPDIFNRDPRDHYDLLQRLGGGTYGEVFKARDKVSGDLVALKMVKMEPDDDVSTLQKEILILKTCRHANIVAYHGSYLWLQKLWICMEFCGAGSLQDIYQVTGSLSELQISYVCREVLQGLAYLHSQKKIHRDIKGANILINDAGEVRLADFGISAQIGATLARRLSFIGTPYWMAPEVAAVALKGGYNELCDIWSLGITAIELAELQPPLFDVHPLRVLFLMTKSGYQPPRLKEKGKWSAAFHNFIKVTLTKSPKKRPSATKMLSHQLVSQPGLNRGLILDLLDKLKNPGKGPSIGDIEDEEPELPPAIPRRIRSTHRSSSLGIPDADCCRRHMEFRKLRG
Experiment: HPK1-SLP76 TR-FRET assay
Assay type: biochemical
Conditions: 75 pM HPK1, 10 uM ATP, 10 nM SLP76, 30 min compound pre-incubation

Compound	IC50
COc1cc2c(cc1Nc1ncc(C(N)=O)c(Nc3ccccc3-c3cc(C)no3)n1)CN(C)CC2 [Example 7-85, 2-((6-methoxy-2-methyl-1,2,3,4-tetrahydroisoquinolin-7-yl)amino)-4-((2-(3-methylisoxazol-5-yl)phenyl)amino)pyrimidine-5-carboxamide]	9.29 nM
COc1cc2c(cc1Nc1ncc(C(N)=O)c(Nc3c(F)cccc3C(C)OC)n1)CN(C)CC2 (racemic) [Example 23-1, (RAC)-4-((2-fluoro-6-(1-methoxyethyl)phenyl)amino)-2-((6-methoxy-2-methyl-1,2,3,4-tetrahydroisoquinolin-7-yl)amino)pyrimidine-5-carboxamide]	0.22 nM
Cc1cc(Nc2ncc(C(N)=O)c(Nc3cccc4c3CCNC4=O)n2)ccc1C1CC1 [Example 25-12, 2-[(4-cyclopropyl-3-methylphenyl)amino]-4-[(1-oxo-1,2,3,4-tetrahydroisoquinolin-5-yl)amino]pyrimidine-5-carboxamide]	0.57 nM
NC(=O)c1cnc(Nc2ccc3c(c2)C(=O)OCC3)nc1Nc1ccccc1Br [Example 7-106, 4-[(2-bromophenyl)amino]-2-[(1-oxo-3,4-dihydro-1H-2-benzopyran-7-yl)amino]pyrimidine-5-carboxamide]	63.8 nM
COc1cc2c3cc1Nc1ncc(C(N)=O)c(n1)Nc1c(F)cc(cc1F)CCCCCN(CC2)C3 [Example 19-1, 52,56-Difluoro-16-methoxy-11,12,13,14-tetrahydro-2,4-diaza-1(7,2)-isoquinolina-3(2,4)-pyrimidina-5(1,4)-benzenacyclodecaphane-35-carboxamide]	3.01 nM
CC(C)c1cccc(Nc2ncc(C(N)=O)c(Nc3cccc4c3CCNC4=O)n2)c1 [Example 25-28, 4-[(1-oxo-1,2,3,4-tetrahydroisoquinolin-5-yl)amino]-2-{[3-(propan-2-yl)phenyl]amino}pyrimidine-5-carboxamide]	3.72 nM
COc1cc2c(cc1Nc1ncc(C(N)=O)c(Nc3ccccc3Br)n1)CN(C1CC(CO)C1)CC2 (single isomer, unassigned) [Example 9-3, 4-((2-bromophenyl)amino)-2-((2-(3-(hydroxymethyl)cyclobutyl)-6-methoxy-1,2,3,4-tetrahydroisoquinolin-7-yl)amino)pyrimidine-5-carboxamide]	0.33 nM
COc1cc2c(cc1Nc1ncc(C(N)=O)c(Nc3c(F)cc(F)cc3Cl)n1)CN(C)CC2 [Example 4-21, 4-[(2-chloro-4,6-difluorophenyl)amino]-2-[(6-methoxy-2-methyl-1,2,3,4-tetrahydroisoquinolin-7-yl)amino]pyrimidine-5-carboxamide]	0.45 nM
Cc1ccc(C(F)(F)F)cc1Nc1ncc(C(N)=O)c(Nc2cccc3c2CCNC3=O)n1 [Example 25-32, 2-{[2-methyl-5-(trifluoromethyl)phenyl]amino}-4-[(1-oxo-1,2,3,4-tetrahydroisoquinolin-5-yl)amino]pyrimidine-5-carboxamide]	455 nM
COc1cc2c(cc1Nc1ncc(C(N)=O)c(NC3CC[C@H]4NCCC[C@@H]34)n1)CN(C)CC2 (stereo partly drawn) [Example 26-10, 2-[(6-methoxy-2-methyl-1,2,3,4-tetrahydroisoquinolin-7-yl)amino]-4-{[(4aR,7aR)-octahydro-1H-cyclopenta[b]pyridin-5-yl]amino}pyrimidine-5-carboxamide]	1.06 nM
NC(=O)c1cnc(Nc2ccccc2)nc1Nc1cccc2c1CCNC2=O [Example 25-1, 4-[(1-oxo-1,2,3,4-tetrahydroisoquinolin-5-yl)amino]-2-(phenylamino)pyrimidine-5-carboxamide]	24.4 nM
COc1cc2c(cc1Nc1ncc(C(N)=O)c(Nc3cccc(CO)c3)n1)CN(C)CC2 [Example 1-1, 4-((3-(Hydroxymethyl)phenyl)amino)-2-((6-methoxy-2-methyl-1,2,3,4-tetrahydroisoquinolin-7-yl)amino)pyrimidine-5-carboxamide]	0.35 nM
COc1cc2c(cc1Nc1ncc(C(N)=O)c(N[C@@H]3c4ccccc4C[C@H]3O)n1)CN(C)CC2 [Example 26-65, 4-{[(1R,2R)-2-hydroxy-2,3-dihydro-1H-inden-1-yl]amino}-2-[(6-methoxy-2-methyl-1,2,3,4-tetrahydroisoquinolin-7-yl)amino]pyrimidine-5-carboxamide]	17.8 nM
COc1cc2c(cc1Nc1ncc(C(N)=O)c(NC3CCc4ccc(F)cc43)n1)CN(C)CC2 (stereo not drawn) [Example 26-25, 4-[(6-fluoro-2,3-dihydro-1H-inden-1-yl)amino]-2-[(6-methoxy-2-methyl-1,2,3,4-tetrahydroisoquinolin-7-yl)amino]pyrimidine-5-carboxamide]	0.22 nM
COc1cc2c(cc1Nc1ncc(C(N)=O)c(NCc3ccc(C#N)cc3)n1)CN(C)CC2 [Example 26-59, 4-{[(4-cyanophenyl)methyl]amino}-2-[(6-methoxy-2-methyl-1,2,3,4-tetrahydroisoquinolin-7-yl)amino]pyrimidine-5-carboxamide]	48.3 nM
COc1cc2c(cc1Nc1ncc(C(N)=O)c(Nc3ccccc3Br)n1)CN(C(=O)C1(N(C)C)CCC1)CC2 [Example 12-7, 4-[(2-bromophenyl)amino]-2-({2-[1-(dimethylamino)cyclobutane-1-carbonyl]-6-methoxy-1,2,3,4-tetrahydroisoquinolin-7-yl}amino)pyrimidine-5-carboxamide]	1.96 nM
COc1cc2c(cc1Nc1ncc(C(N)=O)c(Nc3ccccc3C3CCCCC3)n1)CN(C)CC2 [Example 13-1, 4-[(2-cyclohexylphenyl)amino]-2-[(6-methoxy-2-methyl-1,2,3,4-tetrahydroisoquinolin-7-yl)amino]pyrimidine-5-carboxamide]	5.83 nM
CN1CCc2cc(F)c(Nc3ncc(C(N)=O)c(Nc4cccc5c4OC(C)(C)C5)n3)cc2C1 [Example 4-32, 4-[(2,2-dimethyl-2,3-dihydro-1-benzofuran-7-yl)amino]-2-[(6-fluoro-2-methyl-1,2,3,4-tetrahydroisoquinolin-7-yl)amino]pyrimidine-5-carboxamide]	1.13 nM
C[C@@H](Nc1ncc(C(N)=O)c(Nc2cccc3c2CCNC3=O)n1)c1ccc(F)cc1 [Example 25-8, 2-{[(1R)-1-(4-fluorophenyl)ethyl]amino}-4-[(1-oxo-1,2,3,4-tetrahydroisoquinolin-5-yl)amino]pyrimidine-5-carboxamide]	176 nM
COc1cc2c(cc1Nc1ncc(C(N)=O)c(Nc3cccc4nn[nH]c34)n1)CN(C)CC2 [Example 7-5, 4-[(1H-benzotriazol-7-yl)amino]-2-[(6-methoxy-2-methyl-1,2,3,4-tetrahydroisoquinolin-7-yl)amino]pyrimidine-5-carboxamide]	0.5 nM
NC(=O)c1cnc(Nc2cccc3ccccc23)nc1Nc1cccc2c1CCNC2=O [Example 25-14, 2-[(naphthalen-1-yl)amino]-4-[(1-oxo-1,2,3,4-tetrahydroisoquinolin-5-yl)amino]pyrimidine-5-carboxamide]	136 nM
COc1cc2c(cc1Nc1ncc(C(N)=O)c(NCc3ccncc3)n1)CN(C)CC2 [Example 26-55, 2-[(6-methoxy-2-methyl-1,2,3,4-tetrahydroisoquinolin-7-yl)amino]-4-{[(pyridin-4-yl)methyl]amino}pyrimidine-5-carboxamide]	224 nM
Cc1ccc(C)c(Nc2ncc(C(N)=O)c(Nc3cccc4c3CCNC4=O)n2)c1 [Example 25-36, 2-[(2,5-dimethylphenyl)amino]-4-[(1-oxo-1,2,3,4-tetrahydroisoquinolin-5-yl)amino]pyrimidine-5-carboxamide]	169 nM
COc1cc2c(cc1Nc1ncc(C(N)=O)c(Nc3ccccc3Br)n1)CN(S(C)(=O)=O)CC2 [Example 10-5, 4-[(2-bromophenyl)amino]-2-{[6-methoxy-2-(methylsulfonyl)-1,2,3,4-tetrahydroisoquinolin-7-yl]amino}pyrimidine-5-carboxamide]	43.2 nM
